# Data from patent publication US20110158980A1, “METHODS TO TREAT AND SCREEN FOR AGENTS TO TREAT OBESITY” (TRUSTEES OF TUFTS COLLEGE, priority 2008, published 2011).
# Key:
# [1] = system: 3T3-L1 adipocytes; test: Metabolite assays (TG, FFA, glucose, lactate, glycerol) on cell lysates and spent medium; format: cell-based; details: day 12 post-induction
# Procedure: (§1) 3T3-L1 preadipocytes were plated onto 24-well plates and expanded in preadipocyte growth medium consisting of DMEM supplemented with calf serum (10% v/v), penicillin and streptomycin. Medium was replenished every other day. Two days post-confluence, the cells were induced to differentiate using an adipogenic cocktail (1 μg/ml insulin, 0.5 mM isobutylmethylxanthine, and 1 μM dexamethasone) added to a basal medium (DMEM with 10% fetal bovine serum and penicillin/streptomycin). After 48 hrs, the first medium was replaced with a second induction medium consisting of the basal adipocyte medium supplemented with only insulin. […] This basal medium was replenished every other day during the remainder of the culture experiments.
# (§2) Metabolite measurements were performed both on cell lysates and spent medium samples as described previously (Si Y, Yoon J, Lee K. American journal of physiology 2007; 292:E1637-46). Cells were lysed in situ with an 0.1% SDS buffer and sonicated. Immediately after collection, the spent medium samples were cleaned of cell debris by a brief centrifugation step. Free glycerol, TG and free fatty acids (FFAs) were measured using enzymatic assay kits (SIGMA™). Glucose and lactate concentrations were measured using the methods of Trinder (Trinder P. J Clin Pathol 1969; 22:158-61) and Loomis (Loomis M E. J Lab Clin Med 1961; 57:966-9), respectively. Amino acids were quantified by HPLC using fluorescence-based detection following pre-column derivatization of primary or secondary amines with 6-aminoquinolyl-N-hydroxysuccinimidyl-carbamate (Cohen S A, De Antonis K M. J Chromatogr A 1994; 661:25-34). All metabolite data were normalized by the corresponding cell sample DNA content, which was determined with a fluorescence-based assay using the Hoechst dye.
# [2] = system: 3T3-L1 adipocytes; test: Amino acid uptake or output of adipocytes (HPLC of spent medium); format: cell-based; details: day 12 post-induction, positive value = uptake
# Procedure: as §1, §2
structure (smiles),measurement,setting,value
O=C(O)Cc1ccccc1 [phenylacetate],Increase of glucose uptake,[1]; 5 mM phenylacetate,38%
same,Increase of glycerol output,[1]; 5 mM phenylacetate,1.2 fold
same,Increase of lactate output,[1]; 5 mM phenylacetate,more than 2 fold
same,Reduction of intracellular free fatty acid concentration,[1]; 5 mM phenylacetate,9%
same,Increase of glucose uptake,[1]; 10 mM phenylacetate,28%
same,Increase of glycerol output,[1]; 10 mM phenylacetate,1.4 fold
same,Increase of lactate output,[1]; 10 mM phenylacetate,more than 2 fold
same,Reduction of intracellular free fatty acid concentration,[1]; 10 mM phenylacetate,17%
same,ALA uptake or output,[2]; 5 mM PA,0.4 ± 0.1 mmol/g-DNA/2 days
same,ASN uptake or output,[2]; 5 mM PA,−4.6 ± 0.2 mmol/g-DNA/2 days
same,ASP uptake or output,[2]; 5 mM PA,0.0 ± 0.0 mmol/g-DNA/2 days
same,GLN uptake or output,[2]; 5 mM PA,−7.9 ± 0.6 mmol/g-DNA/2 days
same,GLU uptake or output,[2]; 5 mM PA,0.3 ± 0.0 mmol/g-DNA/2 days
same,GLY uptake or output,[2]; 5 mM PA,−7.3 ± 0.2 mmol/g-DNA/2 days
same,HIS uptake or output,[2]; 5 mM PA,−0.1 ± 0.1 mmol/g-DNA/2 days
same,ILE uptake or output,[2]; 5 mM PA,8.1 ± 0.3 mmol/g-DNA/2 days
same,LEU uptake or output,[2]; 5 mM PA,8.6 ± 0.3 mmol/g-DNA/2 days
same,LYS uptake or output,[2]; 5 mM PA,−1.8 ± 0.1 mmol/g-DNA/2 days
same,MET uptake or output,[2]; 5 mM PA,0.1 ± 0.1 mmol/g-DNA/2 days
same,PHE uptake or output,[2]; 5 mM PA,−0.1 ± 0.1 mmol/g-DNA/2 days
same,PRO uptake or output,[2]; 5 mM PA,−1.4 ± 0.0 mmol/g-DNA/2 days
same,SER uptake or output,[2]; 5 mM PA,4.5 ± 0.2 mmol/g-DNA/2 days
same,THR uptake or output,[2]; 5 mM PA,−1.2 ± 0.1^ mmol/g-DNA/2 days
same,TYR uptake or output,[2]; 5 mM PA,0.1 ± 0.2 mmol/g-DNA/2 days
same,VAL uptake or output,[2]; 5 mM PA,5.1 ± 0.4 mmol/g-DNA/2 days
same,ALA uptake or output,[2]; 10 mM PA,−0.5 ± 0.1 mmol/g-DNA/2 days
same,ASN uptake or output,[2]; 10 mM PA,−5.9 ± 0.4 mmol/g-DNA/2 days
same,ASP uptake or output,[2]; 10 mM PA,0.0 ± 0.0 mmol/g-DNA/2 days
same,GLN uptake or output,[2]; 10 mM PA,2.6 ± 2.9 mmol/g-DNA/2 days
same,GLU uptake or output,[2]; 10 mM PA,0.3 ± 0.0 mmol/g-DNA/2 days
same,GLY uptake or output,[2]; 10 mM PA,−7.9 ± 0.9^ mmol/g-DNA/2 days
same,HIS uptake or output,[2]; 10 mM PA,−0.1 ± 0.2 mmol/g-DNA/2 days
same,ILE uptake or output,[2]; 10 mM PA,7.5 ± 0.2 mmol/g-DNA/2 days
same,LEU uptake or output,[2]; 10 mM PA,7.9 ± 0.2 mmol/g-DNA/2 days
same,LYS uptake or output,[2]; 10 mM PA,−2.0 ± 0.2 mmol/g-DNA/2 days
same,MET uptake or output,[2]; 10 mM PA,0.1 ± 0.2 mmol/g-DNA/2 days
same,PHE uptake or output,[2]; 10 mM PA,−0.1 ± 0.4 mmol/g-DNA/2 days
same,PRO uptake or output,[2]; 10 mM PA,−2.1 ± 0.2 mmol/g-DNA/2 days
same,SER uptake or output,[2]; 10 mM PA,4.6 ± 0.5 mmol/g-DNA/2 days
same,THR uptake or output,[2]; 10 mM PA,−1.4 ± 0.4^ mmol/g-DNA/2 days
same,TYR uptake or output,[2]; 10 mM PA,−0.0 ± 0.4 mmol/g-DNA/2 days
same,VAL uptake or output,[2]; 10 mM PA,3.8 ± 0.4 mmol/g-DNA/2 days
